Data as given in patent publication US20120202819A1, “COMBINATION THERAPY USING A BETA 3 […] RECEPTOR AGONISTS AND AN […] AGENT” (Merck Sharp & Dohme Corporation, priority 2009, published 2012).
Read-outs that look alike come from different tables or passages of the source.

Experiments:
[1] = tested on: EFS-induced isolated detrusor muscle contractions; assay: EFS-induced contraction of isolated rat detrusor muscle strips, with isobologram analysis; set-up: species or system Sprague-Dawley rats; conditions: single compound, rat bladder strips, EFS
Protocol: Male adult Sprague-Dawley rats were used. After euthanizing using CO2 gas, a whole bladder was removed. Longitudinal strips (about 6 mm×3 mm) of the extratrigonal portion of the detrusor muscle were prepared. […] The strips were tied at one end to the organ bath, and connected at the other end to an isometric transducer (AD Instruments) under a resting tension of 10 mN. The responses of the preparations were recorded at a sampling rate of 10 Hz by a multiple channel data acquisition system (PowerLab, AD Instruments), and measured with an analysis software (Chart, AD Instruments). After the equilibration period for at least 60 min, each tissue strip was challenged to electrical field stimulation (EFS) at 60 Hz; duration, 0.3 ms; 3 sec; 90 V to induce contractions. Upon obtaining stable contractions with EFS, compound solution (25 μL) was applied into organ bath in a cumulative manner. After 15 min of each compound treatment, EFS was applied.
Isobologram Analysis was used to evaluate the synergic effect of a combination therapy. Isobologram Analysis provides a visual assessment of the interaction of two different agents using independent statistical analysis. The statistical analysis can be accomplished from calculations of certain potency indices from single treatment of each compound and fixed-ratio combinations for the same effect.
Isobologram for some particular effect (e.g., 50% of the maximum) in which the dose of active agent A alone is A=20 and active agent B alone is B=100. The straight line connecting these intercept points (additivity line) is the locus of all dose pairs that, based on these potencies, should give the same effect, An actual dose pair such as point Q attains this effect with lesser quantities and is synergistic (or super-additive), while the dose pair denoted by point R means greater quantities are required and is therefore sub-additive.

[2] = tested on: distention-induced rhythmic bladder contraction; assay: Distention-induced rhythmic bladder contraction in anesthetized female rats; format: in vivo, SD rats; conditions: iv, single dosing, urethane-anesthetized female rats
Protocol: • OXY, 0.01, 0.03, 0.1 mg/kg, iv; […].
Next, combination dosing regimens shown below in Table 7 were conducted to compose an isobologram. There were 9 groups in total. ID20 values of OXY and CL was calculated in each combination rate.

muscarinic receptor M3 [3] = target: T1, muscarinic receptor M3 (Homo sapiens, UniProt P20309); conditions: cited from earlier work
T1 sequence (P20309 whole entry): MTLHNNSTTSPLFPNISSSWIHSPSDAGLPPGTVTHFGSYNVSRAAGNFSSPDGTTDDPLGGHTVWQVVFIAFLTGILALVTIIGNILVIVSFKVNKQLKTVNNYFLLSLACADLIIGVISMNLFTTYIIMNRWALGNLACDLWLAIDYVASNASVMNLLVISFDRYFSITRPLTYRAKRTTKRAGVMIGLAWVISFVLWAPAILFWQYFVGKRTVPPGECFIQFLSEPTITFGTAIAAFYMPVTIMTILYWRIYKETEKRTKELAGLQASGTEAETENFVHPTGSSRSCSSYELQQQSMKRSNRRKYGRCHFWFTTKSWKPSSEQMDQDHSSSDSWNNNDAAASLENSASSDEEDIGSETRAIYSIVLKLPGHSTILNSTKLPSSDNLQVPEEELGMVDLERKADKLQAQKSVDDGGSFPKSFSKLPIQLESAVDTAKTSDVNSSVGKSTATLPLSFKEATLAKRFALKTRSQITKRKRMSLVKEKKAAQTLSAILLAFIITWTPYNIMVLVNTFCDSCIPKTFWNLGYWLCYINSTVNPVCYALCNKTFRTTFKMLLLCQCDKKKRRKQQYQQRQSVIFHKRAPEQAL

muscarinic receptor M1 [4] = target: T2, muscarinic receptor M1 (Homo sapiens, UniProt P11229); conditions: read-out: Ki (nM) M1, cited from earlier work
T2 sequence (P11229 1-460): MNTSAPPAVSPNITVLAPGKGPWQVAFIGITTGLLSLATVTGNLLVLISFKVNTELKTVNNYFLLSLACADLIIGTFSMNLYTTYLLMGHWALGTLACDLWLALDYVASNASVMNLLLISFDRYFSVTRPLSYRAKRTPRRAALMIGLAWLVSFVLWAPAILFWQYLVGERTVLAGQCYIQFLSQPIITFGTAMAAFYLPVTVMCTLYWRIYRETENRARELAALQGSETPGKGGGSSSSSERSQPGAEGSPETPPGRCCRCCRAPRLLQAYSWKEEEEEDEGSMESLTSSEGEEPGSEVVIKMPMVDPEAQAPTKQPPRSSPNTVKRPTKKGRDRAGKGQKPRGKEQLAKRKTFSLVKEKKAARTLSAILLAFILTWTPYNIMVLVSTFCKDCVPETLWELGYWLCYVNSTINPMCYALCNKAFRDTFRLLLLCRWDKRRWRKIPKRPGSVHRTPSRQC

muscarinic receptor M4 = target: T3, muscarinic receptor M4 (Homo sapiens, UniProt P08173); conditions: Ohtake et al.; cited from earlier work
T3 sequence (P08173 1-479): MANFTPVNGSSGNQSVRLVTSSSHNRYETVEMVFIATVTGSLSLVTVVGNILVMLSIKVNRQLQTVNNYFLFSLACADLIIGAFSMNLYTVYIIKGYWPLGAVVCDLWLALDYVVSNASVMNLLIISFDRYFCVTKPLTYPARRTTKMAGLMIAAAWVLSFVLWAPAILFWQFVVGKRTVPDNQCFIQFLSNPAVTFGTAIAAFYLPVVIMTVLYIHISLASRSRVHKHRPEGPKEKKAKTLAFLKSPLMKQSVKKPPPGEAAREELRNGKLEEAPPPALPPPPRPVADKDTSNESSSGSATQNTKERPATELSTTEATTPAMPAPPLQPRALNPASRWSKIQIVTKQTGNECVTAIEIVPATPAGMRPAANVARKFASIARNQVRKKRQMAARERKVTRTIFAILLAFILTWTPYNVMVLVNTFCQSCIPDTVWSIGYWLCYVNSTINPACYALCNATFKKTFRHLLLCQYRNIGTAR

muscarinic receptor M2 [5] = target: T4, muscarinic receptor M2 (Homo sapiens, UniProt P08172); conditions: Ohtake et al.; cited from earlier work
T4 sequence (P08172 1-466): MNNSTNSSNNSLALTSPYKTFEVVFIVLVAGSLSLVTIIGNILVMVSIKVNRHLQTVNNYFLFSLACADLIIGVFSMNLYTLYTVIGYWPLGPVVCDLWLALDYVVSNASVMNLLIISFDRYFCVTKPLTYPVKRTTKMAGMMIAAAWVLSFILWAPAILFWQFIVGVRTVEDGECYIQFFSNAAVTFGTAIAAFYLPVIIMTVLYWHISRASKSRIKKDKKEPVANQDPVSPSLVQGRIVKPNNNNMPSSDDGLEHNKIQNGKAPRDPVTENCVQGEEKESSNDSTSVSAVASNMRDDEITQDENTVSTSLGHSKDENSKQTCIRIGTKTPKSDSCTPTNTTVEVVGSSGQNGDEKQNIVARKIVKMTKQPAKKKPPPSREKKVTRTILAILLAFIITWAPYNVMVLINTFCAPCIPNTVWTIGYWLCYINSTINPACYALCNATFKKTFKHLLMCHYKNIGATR

bladder capacity = assay: Bladder capacity (cystometry) in anesthetized rhesus monkeys; format: in vivo, rhesus monkeys (Macaca mulatta); conditions: mean of 4-6 animals
Source text: Adult female rhesus monkeys (Macaca mulatta) weighed 5.3-6.2 kg (4-7 year-old) were used. The subjects were either paired or individually housed on a 12-h light/12-h dark cycle (lights on at 7:00 AM). Their diet consisted of 2050 Teklad (Harlan Laboratories, Indianapolis, Ind.) and fresh fruit or vegetable. Water was freely available. All animals were observed daily by a veterinary technician and caretakers for signs of ill health. Subjects were repeatedly used with >13-day resting period. Monkeys were anesthetized with an intramuscular injection of either Telazol (3-5 mg/kg) or ketamine (10-20 mg/kg) followed by intravenous constant rate infusion with ketamine (0.2-0,8 mg/kg/min) using a syringe pump (552222, Harvard Apparatus, Holliston, Mass.). Animals were placed in a supine position and a triple lumen balloon transurethral catheter (7.4 Fr, Cook Medical, Bloomington, Ind.) was inserted into the bladder and the balloon was inflated with 1 mL of water to secure the tip of catheter at the bladder base. The catheter was connected with an infusion pump (Gemini PC-2TX, ALARIS Medical Systems, San Diego, Calif.) for bladder filling and a pressure transducer for intravesical pressure monitoring. Intravesical pressure was continuously recorded using a multiple channel data acquisition system (Power lab, AD Instruments, Biopac systems, Colorado Springs, Colo.) at a sampling rate of 20 Hz. After confirming bladder emptiness by an ultrasonography (Logiq e vet, GE Medical Systems, Waukesha, Wis., FIG. 1A), saline was intravesically infused at 15 mL/min. When the steep rise in pressure indicative of the micturition reflex was observed, intravesical infusion was stopped and the bladder was manually emptied with a 60 ml syringe.
After two baseline cystometry readings, drug was intravenously administered three times using a rising dose paradigm with a cystometry performed 10 min after each dose. Bladder capacity was measured for each cystometry and % change from the baseline capacity was calculated. As used herein, the term “baseline capacity” or “baseline” means the average bladder capacity from two pre-dose measurements.
The reported results are mean values of % change from baseline in 4-6 animals.

muscarinic receptor M3 [6] = target: T1, muscarinic receptor M3; conditions: Hegde et al.; cited from earlier work
muscarinic receptor M1 [7] = target: T2, muscarinic receptor M1; conditions: Hegde et al.; cited from earlier work
muscarinic receptor M2 [8] = target: T4, muscarinic receptor M2; conditions: Hegde et al.; cited from earlier work

With `C[C@H](Cc1ccc2c(c1)OC(C(=O)[O-])(C(=O)[O-])O2)NC[C@H](O)c1cccc(Cl)c1.[Na+].[Na+]` [CL316243, disodium (R,R)-5-(2-((2-(3-ehlorophenyl)-2-hydroxyethyl)-amino)propyl)-1,3-benzodioxole-2,3-dicarboxylate] the “IC25 (concentration which induced 25% inhibition of detrusor contraction)” value [1] was 2.86 nM and the “ID20 (dose decreasing amplitude by 20%)” value [2] was 0.024 MPK.
With `CCN(CC)CC#CCOC(=O)C(O)(c1ccccc1)C1CCCCC1` (centres unmarked) [Oxybutynin, 4-diethylaminobut-2-ynyl2-cyclohexyl-2-hydroxy-2-phenyl-ethanoate] the “ID20 (dose decreasing amplitude by 20%)” value [2] was 0.057 MPK.
In the case of `CCCOC(C(=O)OC1CCN(C)CC1)(c1ccccc1)c1ccccc1` [Propiverine], the Ki (muscarinic receptor M3 [3]; Ohtake et al.) is listed as 350 ± 53 nM, the M2/M3 ratio (muscarinic receptor M3 [3]; Ohtake et al., ratio of Ki M2 to Ki M3) is listed as 4 and the Ki (muscarinic receptor M1 [4]; Ohtake et al.) is listed as 490 ± 110 nM. For the same compound, the Ki (muscarinic receptor M4) was 900 ± 200 nM and the Ki (muscarinic receptor M2 [5]) was 1400 ± 220 nM.
For `O=C(O[C@H]1CN2CCC1CC2)N1CCc2ccccc2[C@@H]1c1ccccc1` [Solifenacin], the Ki (muscarinic receptor M3 [3]; Ohtake et al.) is given as 12 ± 4.4 nM, the M2/M3 ratio (muscarinic receptor M3 [3]) is given as 14 and the Ki (muscarinic receptor M1 [4]) is given as 26 ± 2 nM. For the same compound, the Ki (muscarinic receptor M4) was 110 ± 45 nM and the Ki (muscarinic receptor M2 [5]) was 170 ± 37 nM.
In the case of `Cc1ccc(O)c([C@@H](CCN(C(C)C)C(C)C)c2ccccc2)c1` [Tolterodine, 2-[(1S)-3-(diisopropylamino)-1-phenylpropyl]-4-methylphenol], the “IC25 (concentration which induced 25% inhibition of detrusor contraction)” value [1] is listed as 4.71 nM, the Ki (muscarinic receptor M1 [4]) is listed as 2.7 ± 0.23 nM and the “Bladder capacity, % change from baseline” value (bladder capacity; mono-therapy 0.01 mg/kg iv, listed as TOL) is listed as 8.6%. The “Bladder capacity, % change from baseline” value (bladder capacity; mono-therapy 0.03 mg/kg iv, listed as TOL) was 16.8%, the “Bladder capacity, % change from baseline” value (bladder capacity; mono-therapy 0.1 mg/kg iv) was 40.3% and the Ki (muscarinic receptor M4) was 6.6 ± 1.7 nM.
For `O=C(O[C@H]1C[C@H]2CC[C@@H](C1)[N+]21CCCC1)C(O)(c1ccccc1)c1ccccc1` [Trospium], the Ki (muscarinic receptor M3 [6]) is given as 0.5 nM, the M2/M3 ratio (muscarinic receptor M3 [6]) is given as 1 and the Ki (muscarinic receptor M1 [7]) is given as 0.75 nM. For the same compound, the Ki (muscarinic receptor M2 [8]) was 0.65 nM.
